The subject of this test is NLRP3. The test is described as follows: IL-1β secretion assay in PMA-differentiated, LPS/nigericin-stimulated THP-1 cells (384-well, ELISA read-out). The test is classed as cell-based, human. The method in brief:
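THP-1 cells differentiated with PMA (5 ng/mL, 40 h), primed in serum-free medium with 25 ng/mL LPS for 2 h, treated with compounds 1 h (0.5% DMSO), then stimulated with nigericin for 2 h at 37 °C. Supernatant IL-1β measured by ELISA; responses normalized to LPS+5 μM nigericin and LPS-only controls.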

[1] abbreviates: Homo sapiens, THP-1, IL-1β secretion, PMA-differentiated THP-1 cells, LPS then nigericin stimulation, ELISA read at 450 nm, read-out: Activity.
Setting [2] is: Homo sapiens, THP-1, Table 4, IL-1β secretion, LPS/nigericin-stimulated THP-1 cells, read-out: IC50.

Molecules are shown by their SMILES. Read-outs that look alike come from different tables or passages of the source.

Consider `CS(=O)(=O)c1ccc(NC(=O)CN2CC3(CC3)c3cc(Br)ccc3C2=O)c(Cl)c1` [Example 183, 2-(6-bromo-1-oxospiro[3H-isoquinoline-4,1′-cyclopropane]-2-yl)-N-(2-chloro-4-methylsulfonylphenyl)acetamide], for which the IC50 is below 10 µM under setting [1] and 8.08 µM under setting [2]. Take `N#Cc1cnc(NC(=O)CN2CC3(CC3(F)F)c3c(ccc(Br)c3F)C2=O)nc1` (single isomer, unassigned) [Example 320, 2-[6-bromo-1′,1′,5-trifluoro-1-oxospiro[3H-isoquinoline-4,2′-cyclopropane]-2-yl]-N-(5-cyanopyrimidin-2-yl)acetamide]: the IC50 (Table 4, IL-1β secretion, LPS/nigericin-stimulated THP-1 cells, read-out: IC50) was determined as 0.014 µM. On to `O=C(CN1CC2(CC2)c2cc(Br)ccc2C1=O)NC1CCN(c2ncccn2)CC1` [Example 380, 2-(6-bromo-1-oxospiro[3H-isoquinoline-4,1′-cyclopropane]-2-yl)-N-(1-pyrimidin-2-ylpiperidin-4-yl)acetamide], for which the IC50 under setting [2] is 11.4 µM. In the case of `O=C(CN1C[C@@]2(C[C@H]2F)c2cc(Br)ccc2C1=O)Nc1ncc(F)cn1` (mixture of isomers) [Example 80, 2-[(2′r,4r)-6-bromo-2′-fluoro-1-oxospiro[3H-isoquinoline-4,1′-cyclopropane]-2-yl]-N-(5-fluoropyrimidin-2-yl)acetamide], the IC50 under setting [1] is below 10 µM and the IC50 under setting [2] worked out at 1.06 µM. For `O=C(CN1CC2(CC2)c2cc(Br)ccc2C1=O)Nc1ccc2c(c1)OC(F)(F)O2` [Example 157, 2-(6-bromo-1-oxospiro[3H-isoquinoline-4,1′-cyclopropane]-2-yl)-N-(2,2-difluoro-1,3-benzodioxol-5-yl)acetamide], the IC50 is, setting by setting: under setting [1], below 10 µM; under setting [2], 9.98 µM. Regarding `CC(C)(O)CCNC(=O)CN1CC2(CC2)c2cc(Br)ccc2C1=O` [Example 47, 2-(6-bromo-1-oxospiro[3H-isoquinoline-4,1′-cyclopropane]-2-yl)-N-(3-hydroxy-3-methylbutyl)acetamide], the IC50 under setting [1] is below 10 µM and the IC50 under setting [2] amounted to 4.7 µM.

Regarding `O=C(CN1CC2(COC2)c2cc(Br)ccc2C1=O)Nc1ncccn1` [Example 92, 2-(6-bromo-1-oxospiro[3H-isoquinoline-4,3′-oxetane]-2-yl)-N-pyrimidin-2-ylacetamide], the IC50 is below 10 µM under setting [1] and 4.46 µM under setting [2]. On to `CC1N(CC(=O)Nc2ncccn2)C(=O)c2ccc(C(F)(F)F)cc2C12CC2` (centres unmarked) [Example 76, 2-[3-methyl-1-oxo-6-(trifluoromethyl)spiro[3H-isoquinoline-4,1′-cyclopropane]-2-yl]-N-pyrimidin-2-ylacetamide], for which the IC50 was above 15 µM under setting [1] and 16.2 µM under setting [2]. With `O=C(CN1CC2(CC2)c2cc(Br)ccc2C1=O)NC1CC(c2ccccc2)C1` (stereo not drawn) [Example 427, 2-(6-bromo-1-oxospiro[3H-isoquinoline-4,1′-cyclopropane]-2-yl)-N-(3-trans-phenylcyclobutyl)acetamide], the IC50 under setting [2] worked out at 6.28 µM. Regarding `O=C(CN1CC2(CC2)c2cc(Br)ccc2C1=O)Nc1nccn2ccnc12` [Example 351], the IC50 under setting [2] turned out to be 4.23 µM. For `COc1cnc(NC(=O)CN2CC3(CC3)c3cc(Br)ccc3C2=O)nc1` [Example 185, 2-(6-bromo-1-oxospiro[3H-isoquinoline-4,1′-cyclopropane]-2-yl)-N-(5-methoxypyrimidin-2-yl)acetamide], the IC50 under setting [1] is below 10 µM and the IC50 under setting [2] was 0.469 µM. As for `CC(C)(O)C1CC(NC(=O)CN2CC3(CC3)c3cc(Br)ccc3C2=O)C1` (centres unmarked) [Example 50, 2-(6-bromo-1-oxospiro[3H-isoquinoline-4,1′-cyclopropane]-2-yl)-N-[3-(2-hydroxypropan-2-yl)cyclobutyl]acetamide], the IC50 was below 10 µM under setting [1] and 6.44 µM under setting [2]. The matching figures for `N#Cc1ccnc(NC(=O)CN2CC3(CC3)c3cc(Br)ccc3C2=O)n1` [Example 107, 2-(6-bromo-1-oxospiro[3H-isoquinoline-4,1′-cyclopropane]-2-yl)-N-(4-cyanopyrimidin-2-yl)acetamide]: below 10 µM and 2.82 µM.

With `O=C(CN1CC2(CC2)c2cc(Br)ccc2C1=O)Nc1ncncc1F` [Example 6], the IC50 reads like this: under setting [1], below 10 µM; under setting [2], 0.141 µM. `O=C(CN1CC2(CC2)c2cc(Br)ccc2C1=O)Nc1n[nH]c2ccccc12` [Example 166, 2-(6-bromo-1-oxospiro[3H-isoquinoline-4,1′-cyclopropane]-2-yl)-N-(1H-indazol-3-yl)acetamide]: the IC50 under setting [1] is below 10 µM and the IC50 under setting [2] turned out to be 4.84 µM.

In the case of `O=C(CN1CC2(CC2)c2cc(Br)ccc2C1=O)NC1CN2CCC1CC2` (centres unmarked) [Example 372, N-(1-azabicyclo[2.2.2]octan-3-yl)-2-(6-bromo-1-oxospiro[3H-isoquinoline-4,1′-cyclopropane]-2-yl)acetamide], the IC50 (Homo sapiens, THP-1) was determined as 22.2 µM.

On to `O=C(CN1CC2(CC2)c2cc(Br)ccc2C1=O)Nc1nc2ccccc2[nH]1` [Example 145, N-(1H-benzimidazol-2-yl)-2-(6-bromo-1-oxospiro[3H-isoquinoline-4,1′-cyclopropane]-2-yl)acetamide], for which the IC50 is, setting by setting: under setting [1], below 10 µM; under setting [2], 2.66 µM.

Take `O=C(CN1CC2(CC2)c2cc(Br)ccc2C1=O)NC1CS(=O)(=O)C1` [Example 118, 2-(6-bromo-1-oxospiro[3H-isoquinoline-4,1′-cyclopropane]-2-yl)-N-(1,1-dioxothietan-3-yl)acetamide]: the IC50 is above 15 µM under setting [1] and 22.4 µM under setting [2]. The matching figures for `O=C(CN1CC2(CC2)c2cc(Br)ccc2C1=O)N[C@@H]1CCCN(C2CC2)C1` [Example 268, 2-(6-bromo-1-oxospiro[3H-isoquinoline-4,1′-cyclopropane]-2-yl)-N-[(3R)-1-cyclopropylpiperidin-3-yl]acetamide]: below 10 µM and 0.192 µM. The matching figures for `O=C(CN1CC2(CC2)c2cc(Br)ccc2C1=O)Nc1nc2ccc(F)cn2n1` [Example 263, 2-(6-bromo-1-oxospiro[3H-isoquinoline-4,1′-cyclopropane]-2-yl)-N-(6-fluoro-[1,2,4]triazolo[1,5-a]pyridin-2-yl)acetamide]: below 10 µM and 0.281 µM. For `O=C(CN1CC2(CC2)c2cc(Br)ccc2C1=O)Nc1ccc2ccccc2n1` [Example 198, 2-(6-bromo-1-oxospiro[3H-isoquinoline-4,1′-cyclopropane]-2-yl)-N-quinolin-2-ylacetamide], the IC50 reads like this: under setting [1], below 10 µM; under setting [2], 1.5 µM. For `O=C(CN1CC2(CC2)c2cc(Br)ccc2C1=O)Nc1ccc2cc[nH]c2c1` [Example 44, 2-(6-bromo-1-oxospiro[3H-isoquinoline-4,1′-cyclopropane]-2-yl)-N-(1H-indol-6-yl)acetamide], the IC50 was below 10 µM under setting [1] and 1.26 µM under setting [2]. As to `O=C(CN1CC2(CC2)c2cc(Br)ccc2C1=O)N[C@H]1C[C@@H](c2ccn[nH]2)C1` [Example 334, 2-(6-bromo-1-oxospiro[3H-isoquinoline-4,1′-cyclopropane]-2-yl)-N-[3-cis-(1H-pyrazol-5-yl)cyclobutyl]acetamide], the IC50 under setting [2] amounted to 7.51 µM. Turning to `O=C(CN1CC2(CC2)c2cc(Br)ccc2C1=O)Nc1ncc(C2COC2)cn1` [Example 332, 2-(6-bromo-1-oxospiro[3H-isoquinoline-4,1′-cyclopropane]-2-yl)-N-[5-(oxetan-3-yl)pyrimidin-2-yl]acetamide], the IC50 under setting [2] was 0.768 µM.

Source of the values: patent US20230416205A1, “COMPOUNDS, COMPOSITIONS, AND METHODS” (Denali Therapeutics Inc, priority 2020, published 2023).
